Source: ChEMBL document CHEMBL1201862, “PubChem BioAssay data set” (2004)
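Interpolation was linear, between the two tested concentrations surrounding the appropriate level; five concentrations were tested over 48 hours in 96-well plates. Abbreviation: GI50, concentration required for 50% inhibition of growth.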 Activity calls are given as the source filed them. No stated cut-off is given here; in the data, active = GI50 up to about 1.1 µM and inactive = higher.

Key:
Assay in all cases: growth of human tumour cells (NCI), 48 h
NCI-H460 = test system: NCI-H460
NCI/ADR-RES = test system: NCI/ADR-RES
HL-60 = test system: HL-60
SK-MEL-5 = test system: SK-MEL-5
SR = test system: SR
HT-29 = test system: HT-29
SK-OV-3 = test system: SK-OV-3
SK-MEL-28 = test system: SK-MEL-28
KM12 = test system: KM12
OVCAR-8 = test system: OVCAR-8
SF-295 = test system: SF-295
M14 = test system: M14
CAKI-1 = test system: CAKI-1
A498 = test system: A498
OVCAR-5 = test system: OVCAR-5
SN12C = test system: SN12C
ACHN = test system: ACHN
UACC-62 = test system: UACC-62
MCF7 = test system: MCF7
SF-268 = test system: SF-268

Measured: GI50

Clc1cc(C(c2cc(Cl)sc2Cl)c2cc(Cl)sc2Cl)c(Cl)s1
inactive: NCI-H460 > 100 µM | NCI/ADR-RES > 100 µM | HL-60 > 100 µM | SK-MEL-5 > 100 µM | SR > 100 µM | HT-29 > 100 µM | SK-OV-3 > 100 µM | SK-MEL-28 > 100 µM | KM12 > 100 µM | OVCAR-8 > 100 µM | SF-295 > 100 µM | M14 > 100 µM | CAKI-1 > 100 µM | A498 > 100 µM | OVCAR-5 > 100 µM | SN12C > 100 µM | ACHN > 100 µM | UACC-62 > 100 µM | MCF7 > 100 µM | SF-268 > 100 µM

NC(=O)NC(=O)c1cccc(NC(=O)CF)c1
inactive: NCI-H460 > 100 µM | NCI/ADR-RES > 100 µM | HL-60 > 100 µM | SK-MEL-5 > 100 µM | SR > 100 µM | HT-29 > 100 µM | SK-OV-3 > 100 µM | SK-MEL-28 > 100 µM | KM12 > 100 µM | OVCAR-8 > 100 µM | SF-295 > 100 µM | M14 41.4 µM | CAKI-1 > 100 µM | A498 > 100 µM | OVCAR-5 > 100 µM | SN12C > 100 µM | ACHN > 100 µM | UACC-62 > 100 µM | MCF7 > 100 µM | SF-268 > 100 µM

Cc1ccc(O)c(C2=CC3=NNC(=O)C3C(c3cccc(Br)c3)C2)c1 (centres undefined)
inactive: NCI-H460 22.4 µM | NCI/ADR-RES 34.6 µM | HL-60 25.4 µM | SK-MEL-5 23.1 µM | SR 21.2 µM | HT-29 23.8 µM | SK-OV-3 14.6 µM | SK-MEL-28 20.6 µM | KM12 14.9 µM | OVCAR-8 20.8 µM | SF-295 18.8 µM | M14 36.9 µM | CAKI-1 23 µM | A498 42.9 µM | OVCAR-5 21.8 µM | SN12C 19.9 µM | ACHN 24 µM | UACC-62 19.6 µM | MCF7 11.4 µM | SF-268 23 µM

COC(=O)NC1(NC(=O)OC)NC(=O)c2ccccc2N1
inactive: NCI-H460 > 100 µM | NCI/ADR-RES > 100 µM | HL-60 > 100 µM | SK-MEL-5 > 100 µM | SR > 100 µM | HT-29 > 100 µM | SK-OV-3 > 100 µM | SK-MEL-28 > 100 µM | KM12 80.4 µM | OVCAR-8 > 100 µM | SF-295 36.5 µM | M14 > 100 µM | CAKI-1 > 100 µM | A498 > 100 µM | OVCAR-5 > 100 µM | SN12C > 100 µM | ACHN > 100 µM | UACC-62 > 100 µM | MCF7 > 100 µM | SF-268 > 100 µM

COc1ccc(-n2cnc3c2=NC(C)(C)NC=3C(N)=O)c(OC)c1
inactive: NCI-H460 > 100 µM | NCI/ADR-RES > 100 µM | HL-60 > 100 µM | SK-MEL-5 > 100 µM | SR > 100 µM | HT-29 > 100 µM | SK-OV-3 > 100 µM | SK-MEL-28 > 100 µM | KM12 > 100 µM | OVCAR-8 > 100 µM | SF-295 > 100 µM | M14 > 100 µM | CAKI-1 > 100 µM | A498 > 100 µM | OVCAR-5 > 100 µM | SN12C > 100 µM | ACHN > 100 µM | UACC-62 > 100 µM | MCF7 > 100 µM | SF-268 > 100 µM

CCOC(=O)c1ccc2nc3n(c2c1)C(c1c(F)cccc1F)SC3 (centres undefined)
inactive: NCI-H460 > 100 µM | NCI/ADR-RES > 100 µM | HL-60 > 100 µM | SK-MEL-5 > 100 µM | SR 49.3 µM | HT-29 > 100 µM | SK-OV-3 > 100 µM | SK-MEL-28 > 100 µM | KM12 81.8 µM | OVCAR-8 > 100 µM | SF-295 > 100 µM | M14 > 100 µM | CAKI-1 > 100 µM | A498 > 100 µM | OVCAR-5 > 100 µM | SN12C > 100 µM | ACHN 84.1 µM | UACC-62 > 100 µM | MCF7 56.8 µM | SF-268 > 100 µM

Nc1ccc2c(c1)NC(=O)[C@@H]1CCCN1C2=O
inactive: NCI-H460 > 100 µM | NCI/ADR-RES > 100 µM | HL-60 > 100 µM | SK-MEL-5 > 100 µM | SR > 100 µM | HT-29 > 100 µM | SK-OV-3 > 100 µM | SK-MEL-28 > 100 µM | KM12 > 100 µM | OVCAR-8 > 100 µM | SF-295 > 100 µM | M14 > 100 µM | CAKI-1 > 100 µM | A498 > 100 µM | OVCAR-5 > 100 µM | SN12C > 100 µM | ACHN > 100 µM | UACC-62 > 100 µM | MCF7 > 100 µM | SF-268 > 100 µM

CNC(=O)N(C)C(=O)c1ccccc1C(=O)N(C)C(=O)NC
inactive: NCI-H460 > 10 µM | NCI/ADR-RES > 10 µM | HL-60 > 10 µM | SK-MEL-5 > 10 µM | SR > 10 µM | HT-29 > 10 µM | SK-OV-3 > 10 µM | SK-MEL-28 > 10 µM | KM12 > 10 µM | OVCAR-8 > 10 µM | SF-295 > 10 µM | M14 > 10 µM | CAKI-1 > 10 µM | A498 > 10 µM | OVCAR-5 > 10 µM | SN12C > 10 µM | ACHN > 10 µM | UACC-62 > 10 µM | MCF7 > 10 µM | SF-268 > 10 µM

c1ccc([P+](Cc2ccc(C[P+](c3ccccc3)(c3ccccc3)c3ccccc3)s2)(c2ccccc2)c2ccccc2)cc1
inactive: NCI-H460 > 100 µM | NCI/ADR-RES > 100 µM | HL-60 > 100 µM | SK-MEL-5 > 100 µM | SR > 100 µM | HT-29 > 100 µM | SK-OV-3 > 100 µM | SK-MEL-28 > 100 µM | KM12 > 100 µM | OVCAR-8 > 100 µM | SF-295 > 100 µM | M14 > 100 µM | CAKI-1 > 100 µM | A498 > 100 µM | OVCAR-5 > 100 µM | SN12C > 100 µM | ACHN > 100 µM | UACC-62 > 100 µM | MCF7 > 100 µM | SF-268 > 100 µM

Nc1c(C(=O)O)nnc2ccc(Cl)cc12
inactive: NCI-H460 > 100 µM | NCI/ADR-RES > 100 µM | HL-60 > 100 µM | SK-MEL-5 > 100 µM | SR > 100 µM | HT-29 > 100 µM | SK-OV-3 > 100 µM | KM12 > 100 µM | OVCAR-8 > 100 µM | SF-295 > 100 µM | M14 > 100 µM | CAKI-1 > 100 µM | A498 58.6 µM | OVCAR-5 > 100 µM | SN12C > 100 µM | ACHN > 100 µM | UACC-62 > 100 µM | MCF7 > 100 µM | SF-268 > 100 µM
